The values below come from publication PMC8624998, “Synthesis and Antiproliferative Evaluation of 3-Chloroazetidin-2-ones with Antimitotic Activity: Heterocyclic Bridged Analogues of Combretastatin A-4” (Pharmaceuticals, 2021).

One experiment concerns U266 cells. Nature of the experiment: Cell viability assay, antiproliferative activity. To be noted: Homo sapiens, U-266; U266, 72 h. The format is cell-based. An excerpt: Compounds 10n and 10e were next evaluated for antiproliferation in multiple myeloma (U266) cells. Multiple myeloma, also known as plasma cell myeloma, is a malignant haematological disease characterised by the proliferation of clonal plasma cells predominantly in the bone marrow. U266 cells are considered to be the least sensitive multiple myeloma cells to nucleoside drug cladribine compared to RPMI8226 and MM1.S cells.
The human breast carcinoma cell line MCF-7 was purchased from the European Collection of Animal Cell Cultures (ECACC). Triple negative breast cancer Hs578T cells and its invasive variant Hs578Ts(i)8 were a kind gift from Dr. Susan McDonnell, School of Chemical and Bioprocess Engineering, University College Dublin. U266 cells were a gift from Dr. Tony McElligott, School of Medicine, St James’s Hospital, Trinity College Dublin. HT-29 cells were purchased from the European Collection of Cell Cultures (originating from a human adenocarcinoma of the colon). The human breast carcinoma cell line MDA-MB-231 and the HL-60 cells derived from a patient with acute myeloid leukaemia were both obtained from ECACC (Salisbury, UK). The SW-480 cells were a kind gift from Dr. Brian Flood, School of Biochemistry and Immunology, Trinity College Dublin. HEK-293T (normal epithelial embryonic kidney cells) were cultured in Dulbecco’s Modified Eagle’s Medium (DMEM) with GlutaMAXTM-I in the absence of non-essential amino acids. […] Cell numbers were monitored using a haemocytometer. […]
A stock solution of each β-lactam compound was prepared (10 mM) and serial […] dilutions were made with ethanol for compounds to have working dilutions of 1 nM, 10 nM, 100 nM, 500 nM, 1µM, 5 µM, 10 µM and 50 µM. […] Solubilisation was commenced by the addition of DMSO ([…]) and the cells were maintained at 20 °C in the dark for 20 min before reading the absorbance to ensure complete colour diffusion. […]

The test system of experiment [1] is purified bovine brain tubulin. Nature of the experiment: In vitro tubulin polymerisation assay. The following applies: for Vmax at 10 µM: 10 µM compound, tubulin 3 mg/mL, vehicle 0.0069; for Fold-Reduction of Vmax of tubulin polymerisation: 10 µM.
The test system of a further experiment is NCI-H226. In words: NCI-60 5 dose screen, NSC Lung Cancer. The format is cell-based. The following applies: Homo sapiens.
A further experiment deals with HCT-2998. In words: NCI-60 5 dose screen, Colon Cancer. The class given is cell-based. The following applies: Homo sapiens.
The next experiment deals with KM12. Nature of the experiment: NCI-60 5 dose screen, Colon Cancer. To be noted: Homo sapiens. The class given is cell-based.
The test system of another experiment is SF-268. In words: NCI-60 5 dose screen, CNS Cancer. The format is cell-based. To be noted: Homo sapiens.
For another experiment, the system named is MDA-MB-435. Nature of the experiment: NCI-60 5 dose screen, Melanoma. The class given is cell-based. The following applies: Homo sapiens.
Another experiment deals with SK-MEL-28. In words: NCI-60 5 dose screen, Melanoma. The format is cell-based. The following applies: Homo sapiens.
In the next experiment the test system is IGROV1. Nature of the experiment: NCI-60 5 dose screen, Ovarian Cancer. The format is cell-based. The following applies: Homo sapiens, IGROV-1.
The subject of the next experiment is OVCAR-3. Nature of the experiment: NCI-60 5 dose screen, Ovarian Cancer. The format is cell-based. To be noted: Homo sapiens.
The test system of another experiment is 786-0. In words: NCI-60 5 dose screen, Renal Cancer. The format is cell-based. The following applies: Homo sapiens.

SMILES strings stand for the structures. Read-outs that look alike come from different tables or passages of the source.

As usually defined, the IC50 is the point on the concentration scale where inhibition reaches its midpoint. A lower IC50 goes with greater potency. For `COc1ccc(/C=C\c2cc(OC)c(OC)c(OC)c2)cc1O` [CA-4, Combretastatin A-4], in the experiment on U266 cells, half-maximal inhibition (IC50) required 35 ± 10 nM. Also, the “Vmax at 10 µM” value in experiment [1] worked out at 0.0022 mOD/min.
One may read the GI50 as the concentration that inhibits growth by half. Consider `CCSc1ccc(C2C(Br)C(=O)N2c2cc(OC)c(OC)c(OC)c2)cc1` (centres unmarked) [Compound 16d, 3-Bromo-4-(4-(ethylthio)phenyl)-1-(3,4,5-trimethoxyphenyl)azetidin-2-one], for which the GI50 with NCI-H226 (read-out: GI50) amounted to 3110 nM; with HCT-2998 (HCT-2998, read-out: GI50) it was 673 nM; in the experiment on KM12 (read-out: GI50) it was 202 nM; in the experiment on SF-268 (read-out: GI50), 1180 nM; in the experiment with MDA-MB-435 (read-out: GI50), 37.7 nM; in the experiment on SK-MEL-28 (read-out: GI50), 1940 nM. Besides, the 50% growth inhibitory concentration (GI50) amounted to 63 nM in the experiment on IGROV1 (IGROV1, read-out: GI50); 109 nM in the experiment on OVCAR-3 (read-out: GI50); 340 nM with 786-0 (read-out: GI50).
With `COc1ccc(C2N(c3cc(OC)c(OC)c(OC)c3)C(=O)C2(Cl)Cl)cc1O` (centres unmarked) [Compound 11n, 3,3-Dichloro-4-(3-hydroxy-4-methoxyphenyl)-1-(3,4,5-trimethoxyphenyl)azetidin-2-one], the concentration for 50% growth inhibition (GI50) in the experiment on NCI-H226 is 36.8 nM; in the experiment with HCT-2998 it was 53.4 nM; in the experiment on KM12, 31.8 nM; with SF-268, 51.4 nM; in the experiment on MDA-MB-435, 20.2 nM; in the experiment with SK-MEL-28, 62.9 nM. For the same compound, the GI50 is 44.5 nM with IGROV1, 24.4 nM in the experiment on OVCAR-3 and 41.2 nM with 786-0. In experiment [1], the “Fold-Reduction of Vmax of tubulin polymerisation” value stood at 1.7 fold. Also, in experiment [1], the “Vmax at 10 µM” value is 0.0041 mOD/min.
In the case of `COc1ccc([C@H]2[C@H](Cl)C(=O)N2c2cc(OC)c(OC)c(OC)c2)cc1` (relative stereo) [Compound 10e trans, Trans-3-chloro-1-(3,4,5-trimethoxyphenyl)-4-(4-methoxyphenyl) azetidin-2-one], inhibition in the experiment on U266 cells was half-maximal at 77 ± 20 nM (IC50). The 50% growth inhibitory concentration (GI50) worked out at 55.7 nM in the experiment on NCI-H226 (read-out: GI50); 80.4 nM in the experiment on HCT-2998 (HCT-2998, read-out: GI50); 39.3 nM with KM12 (read-out: GI50); 158 nM in the experiment on SF-268 (read-out: GI50); 22.6 nM with MDA-MB-435 (read-out: GI50); 69.6 nM in the experiment on SK-MEL-28 (read-out: GI50). The GI50 in the experiment on IGROV1 (IGROV1, read-out: GI50) is 58 nM; with OVCAR-3 (read-out: GI50), 24.1 nM; in the experiment on 786-0 (read-out: GI50), 69.4 nM. Further, the “Fold-Reduction of Vmax of tubulin polymerisation” value in experiment [1] was 1.8 fold. Also, in [1], the “Vmax at 10 µM” value is listed as 0.0039 mOD/min.
In the experiment with U266 cells, `COc1ccc(C2C(Cl)C(=O)N2c2cc(OC)c(OC)c(OC)c2)cc1O` (centres unmarked) [Compound 10n, 3-Chloro-4-(3-hydroxy-4-methoxy-phenyl)-1-(3,4,5-trimethoxyphenyl)azetidin-2-one] registered an IC50 of 31 ± 10 nM.
